From patent US20260176320A1, “MODULATORS OF G-PROTEIN COUPLED RECEPTORS” (priority 2018, published 2026)
Where two headings read alike, the source gives them in different places.

What was measured:
Type in all cases: cell-based
[1] = molecular target: T1, GIP-R (Homo sapiens, UniProt P48546); assay: HitHunter cAMP assay (GIP-R); settings: cAMP; for Emax: read-out: (Emax) GIP-R
T1 sequence (P48546 22-466): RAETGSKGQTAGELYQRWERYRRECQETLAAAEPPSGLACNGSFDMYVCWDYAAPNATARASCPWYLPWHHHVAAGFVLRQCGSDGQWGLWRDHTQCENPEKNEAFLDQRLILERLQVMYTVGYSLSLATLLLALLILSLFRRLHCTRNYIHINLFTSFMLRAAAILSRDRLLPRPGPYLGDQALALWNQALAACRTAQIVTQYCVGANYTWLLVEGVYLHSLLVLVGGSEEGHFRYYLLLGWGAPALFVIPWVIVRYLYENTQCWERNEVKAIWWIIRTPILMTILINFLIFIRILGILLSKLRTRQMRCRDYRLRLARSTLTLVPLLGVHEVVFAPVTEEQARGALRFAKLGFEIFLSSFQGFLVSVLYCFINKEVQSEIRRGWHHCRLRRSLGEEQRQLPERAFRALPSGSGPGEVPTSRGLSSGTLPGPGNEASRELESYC
Procedure, shortened: (§1)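 Agonist stimulation lasts 30 min at room temperature on 10,000 cells per well, with phosphodiesterase blocked by 625 μM IBMX. Accumulated cAMP is quantified by competitive antibody luminescence after overnight development.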

[2] = molecular target: T2, GLP-1R (Homo sapiens, UniProt P43220); assay: HitHunter cAMP assay (GLP-1R); settings: cAMP; for Emax: read-out: (Emax) GLP-1R
Procedure, shortened: as §1

[3] = molecular target: T2, GLP-1R; assay: PathHunter β-arrestin assay
Procedure, shortened: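 Recruitment of β-arrestin is measured by luminescence after cells, plated overnight, receive serially diluted agonist for 90 min at 37 °C in medium with 0.2% BSA. Detection reagent then develops for 3 h at room temperature, protected from light.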

T2 sequence (P43220 24-463): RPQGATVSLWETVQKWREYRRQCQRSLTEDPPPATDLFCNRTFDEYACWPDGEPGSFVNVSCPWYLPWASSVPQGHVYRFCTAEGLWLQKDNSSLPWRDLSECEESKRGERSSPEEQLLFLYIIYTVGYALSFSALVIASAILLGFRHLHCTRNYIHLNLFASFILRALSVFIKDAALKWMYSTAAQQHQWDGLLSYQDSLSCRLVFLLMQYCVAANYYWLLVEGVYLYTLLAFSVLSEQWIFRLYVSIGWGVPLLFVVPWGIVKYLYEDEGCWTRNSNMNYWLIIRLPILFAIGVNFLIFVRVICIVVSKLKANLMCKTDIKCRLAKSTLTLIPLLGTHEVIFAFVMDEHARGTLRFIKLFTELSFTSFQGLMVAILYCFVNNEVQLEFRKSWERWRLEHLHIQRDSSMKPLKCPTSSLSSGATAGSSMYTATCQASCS

Row | Compound | Emax ([1]; Table 3) | EC50 ([1]; Table 3, read-out: EC50 GIP-R/nM) | Emax ([1]; Table 3A) | EC50 ([1]; Table 3A, read-out: EC50 GIP-R/nM) | Emax ([2]; Table 3) | EC50 ([2]; Table 3, read-out: EC50 GLP-1R/nM) | Emax ([2]; Table 3A) | EC50 ([2]; Table 3A, read-out: EC50 GLP-1R/nM) | EC50 ([3]; PathHunter β-arrestin assay, read-out: β-arrestin activity EC50) | EC50 ([1]; EC50 GIP-R/nM, Table 3) | EC50 ([1]; EC50 GIP-R/nM, Table 3A) | EC50 ([2]; EC50 GLP-1R/nM, Table 3) | EC50 ([2]; EC50 GLP-1R/nM, Table 3A) | EC50 [3]
1 | CCCCCCCCCCCCCCCC(=O)N[C@@H](CCC(=O)NCCCC[C@H](NC(=O)[C@H](CO)NC(=O)[C@@H]1CCCN1C(=O)[C@@H]1CCCN1C(=O)[C@@H]1CCCN1C(=O)[C@H](C)NC(=O)CNC(=O)[C@H](CO)NC(=O)[C@H](CO)NC(=O)[C@@H]1CCCN1C(=O)CNC(=O)CNC(=O)[C@H](C)NC(=O)[C@H](CC(C)C)NC(=O)[C@H](CC(C)C)NC(=O)[C@H](Cc1c[nH]c2ccccc12)NC(=O)[C@H](CC(N)=O)NC(=O)[C@@H](NC(=O)[C@H](Cc1ccccc1)NC(=O)[C@H](CCC(=O)O)NC(=O)C(C)(C)NC(=O)[C@H](C)NC(=O)[C@H](C)NC(=O)[C@H](CCC(N)=O)NC(=O)[C@H](CCCCN)NC(=O)[C@H](CC(=O)O)NC(=O)[C@H](CC(C)C)NC(=O)[C@H](Cc1ccc(O)cc1)NC(=O)[C@@H](NC(=O)[C@H](CO)NC(=O)[C@H](Cc1ccc(O)cc1)NC(=O)[C@H](CC(=O)O)NC(=O)[C@H](CO)NC(=O)[C@@H](NC(=O)[C@H](Cc1ccccc1)NC(=O)[C@@H](NC(=O)CNC(=O)[C@H](CCC(=O)O)NC(=O)CCCC(=O)NCCN1C(=O)CSC1=O)[C@@H](C)O)[C@@H](C)O)[C@@H](C)CC)C(C)C)C(N)=O)C(=O)O [Compound 155] | 80% | 1 to 10 nM | 80% | 1 to 10 nM | 102% | 0.1 to 1 nM | 102% | 0.1 to 1 nM | > 1000 nM |  |  |  |  | 
2 | CC[C@H](C)[C@H](NC(=O)[C@H](CO)NC(=O)[C@H](Cc1ccc(O)cc1)NC(=O)[C@H](CC(=O)O)NC(=O)[C@H](CO)NC(=O)[C@@H](NC(=O)[C@H](Cc1ccccc1)NC(=O)[C@@H](NC(=O)CNC(=O)[C@H](CCC(=O)O)NC(=O)CSCC(=O)NCCN1C(=O)c2ccc(C)cc2C1=O)[C@@H](C)O)[C@@H](C)O)C(=O)N[C@@H](Cc1ccc(O)cc1)C(=O)N[C@@H](CC(C)C)C(=O)N[C@@H](CC(=O)O)C(=O)N[C@@H](CCCCN)C(=O)N[C@@H](CCC(N)=O)C(=O)N[C@@H](C)C(=O)N[C@@H](C)C(=O)NC(C)(C)C(=O)N[C@@H](CCC(=O)O)C(=O)N[C@@H](Cc1ccccc1)C(=O)N[C@H](C(=O)N[C@@H](CC(N)=O)C(=O)N[C@@H](Cc1c[nH]c2ccccc12)C(=O)N[C@@H](CC(C)C)C(=O)N[C@@H](CC(C)C)C(=O)N[C@@H](C)C(=O)NCC(=O)NCC(=O)N1CCC[C@H]1C(=O)N[C@@H](CO)C(=O)N[C@@H](CO)C(=O)NCC(=O)N[C@@H](C)C(=O)N1CCC[C@H]1C(=O)N1CCC[C@H]1C(=O)N1CCC[C@H]1C(=O)N[C@@H](CO)C(=O)N[C@@H](CCCCN)C(N)=O)C(C)C [Compound 156] | 116 to 118% |  | 116 to 118% |  | 95 to 100% |  | 95 to 100% |  |  | < 0.1 nM | < 0.1 nM | 1 to 10 nM | 1 to 10 nM | > 1000 nM
